Laboratory results from publication PMC9710854 (Chemical communications (Cambridge, England), 2022).

How the values were obtained:
[1] = Experimental partition coefficient; type: physicochemical
[2] = Plasma protein binding estimated by an HPLC-based method; type: in vitro ADME
[3] = test system: MM.1S cells; assay: Cell viability of MM.1S cells after 24 h treatment; type: cell-based
[4] = target: USP7 catalytic domain (Homo sapiens, UniProt Q93009); assay: USP7 inhibition with isolated USP7 catalytic domain using Ub-AMC as a substrate; type: biochemical
Sequence of USP7 catalytic domain (Q93009 214-521 limits assumed): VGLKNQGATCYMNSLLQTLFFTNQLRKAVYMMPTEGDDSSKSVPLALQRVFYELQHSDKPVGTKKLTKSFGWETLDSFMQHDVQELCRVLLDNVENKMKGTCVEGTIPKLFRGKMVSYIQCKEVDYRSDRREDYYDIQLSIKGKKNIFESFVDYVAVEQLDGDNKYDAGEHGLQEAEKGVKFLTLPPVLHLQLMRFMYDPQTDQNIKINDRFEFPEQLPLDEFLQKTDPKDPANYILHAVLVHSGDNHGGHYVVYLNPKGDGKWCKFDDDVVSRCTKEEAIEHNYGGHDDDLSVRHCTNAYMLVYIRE

Structure (SMILES) | logD [1] | PPB ([2]; plasma protein binding, estimated by an HPLC-based method) [%] | cell viability ([3]; remaining viability, MM.1S cells, 10 μM) [%] | fraction unbound ([2]; plasma) | IC50 [4] [nM] | viability at 10 µM ([3]; Homo sapiens, MM1.S, read-out: cell viability) [%]
C[C@H](CC(=O)N1CCC(O)(Cn2cnc3cc(NC(=O)CCN4CCN(C)CC4)ccc3c2=O)CC1)c1ccccc1 [Compound 3, XL188] | 1.3 | 87 | 43 |  |  | 
O=C(C[C@@H](C(F)F)n1ccc(F)n1)N1CCC(O)(Cn2cnc3c(cnn3-c3ccc(F)cc3)c2=O)CC1 [Compound 2, FT671] | 2.5 |  |  | 0.1 | 32 ± 7 | 41
